Data on one compound can be found in patent US11103518B2, “Prostate cancer treatment via synergistic inhibition of aryl hydrocarbon receptor (AhR) and SRC” (Clark Atlanta University, Inc., priority 2016, dated 2021).

Each structure is given as a SMILES string.

Data set [1] relates to KLK3. The note with it: C4-2 cells, 50 μM CH223191 or 30 μM PP2 alone or in combination, 72 h, normalized to L-19.
Protocol: (§1) RNA Extraction and Quantitative qRT-PCR Analysis: Total RNA was isolated from cell monolayers grown in 100 mm tissue culture dishes using RNeasy Mini Kit (Qiagen). 2 μg of the total RNA was reverse-transcribed using the Superscript II kit (Invitrogen), according to the manufacturer's recommendations. The cDNA served as a template in a 25 μl reaction mixture and was processed using the following protocol: an initial denaturation at 95° C. for 3 min, followed by 39 amplification cycles (95° C. for 10 s and 55-65° C. for 30 s), 95° C. for 10 s, 65° C. for 5 s and 95° C. for 50 s. The 25 μl qPCR reaction mixture was mixed with GoTaq qPCR Master Mix (Promega). Melt curve analyses were performed after each run to ensure a single product. Relative gene expression was determined using the ΔΔCq calculation method.
(§2) Primers to amplify the 470-bp cDNA fragment encoding L19 were used as an internal control. L-19: Forward (5′-3′) [sequence] & Reverse (5′-3′) [sequence].
(§3) Each bar represents mean±SEM (n=3) and were analyzed by student t-test. (*) denotes statistically significant differences (*P<0.05) compared to control.
The target of data set [2] is T1, AhR (Homo sapiens, UniProt P35869).
T1 sequence (P35869 11-848): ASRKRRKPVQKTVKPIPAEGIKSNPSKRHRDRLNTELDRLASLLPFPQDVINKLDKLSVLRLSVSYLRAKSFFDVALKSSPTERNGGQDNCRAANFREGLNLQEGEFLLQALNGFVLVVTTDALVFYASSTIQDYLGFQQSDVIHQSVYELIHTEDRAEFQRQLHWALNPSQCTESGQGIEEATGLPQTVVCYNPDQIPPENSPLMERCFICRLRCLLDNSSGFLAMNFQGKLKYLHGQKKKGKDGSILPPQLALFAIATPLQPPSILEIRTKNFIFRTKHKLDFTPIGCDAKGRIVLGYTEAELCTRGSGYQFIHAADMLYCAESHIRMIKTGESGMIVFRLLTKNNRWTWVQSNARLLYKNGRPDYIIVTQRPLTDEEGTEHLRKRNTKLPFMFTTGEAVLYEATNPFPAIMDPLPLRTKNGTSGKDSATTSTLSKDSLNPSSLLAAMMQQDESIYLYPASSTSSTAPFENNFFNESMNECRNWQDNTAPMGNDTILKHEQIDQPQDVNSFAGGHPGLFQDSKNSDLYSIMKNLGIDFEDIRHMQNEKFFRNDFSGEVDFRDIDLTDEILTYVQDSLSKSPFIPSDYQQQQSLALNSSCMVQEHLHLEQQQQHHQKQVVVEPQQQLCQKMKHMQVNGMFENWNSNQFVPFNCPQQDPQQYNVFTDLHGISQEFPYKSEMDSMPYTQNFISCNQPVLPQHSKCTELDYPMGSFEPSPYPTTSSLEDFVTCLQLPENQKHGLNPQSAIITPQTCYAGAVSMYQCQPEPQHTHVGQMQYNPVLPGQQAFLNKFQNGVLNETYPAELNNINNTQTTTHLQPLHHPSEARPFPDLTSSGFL
To be noted: even at 100 micromolar; cited from earlier work.

Data set [3] deals with T2, estrogen receptor (Homo sapiens, UniProt P03372).
T2 sequence (P03372 1-595): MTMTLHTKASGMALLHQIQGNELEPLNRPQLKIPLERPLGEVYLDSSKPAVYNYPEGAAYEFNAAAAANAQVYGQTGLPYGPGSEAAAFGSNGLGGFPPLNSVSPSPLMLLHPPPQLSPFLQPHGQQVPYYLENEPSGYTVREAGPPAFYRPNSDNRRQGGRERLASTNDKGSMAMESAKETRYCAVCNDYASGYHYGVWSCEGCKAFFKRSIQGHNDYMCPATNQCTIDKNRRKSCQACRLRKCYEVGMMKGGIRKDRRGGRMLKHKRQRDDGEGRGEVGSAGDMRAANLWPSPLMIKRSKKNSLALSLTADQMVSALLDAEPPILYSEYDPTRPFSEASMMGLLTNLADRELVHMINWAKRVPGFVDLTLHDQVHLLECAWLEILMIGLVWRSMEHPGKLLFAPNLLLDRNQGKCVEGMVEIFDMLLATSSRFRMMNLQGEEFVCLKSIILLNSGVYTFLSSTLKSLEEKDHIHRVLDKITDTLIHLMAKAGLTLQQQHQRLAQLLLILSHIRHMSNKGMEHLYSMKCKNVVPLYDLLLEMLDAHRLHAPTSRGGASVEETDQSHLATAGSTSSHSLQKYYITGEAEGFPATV
To be noted: cited from earlier work.

Data set [4] relates to AR. The data set can be described thus: Cignal ARE luciferase reporter assay in C4-2 cells. The note with it: C4-2 cells transfected with ARE reporter, FIG. 2B. Format: cell-based, human. For orientation: Reporter assays use an easily measured gene product as a stand-in for the process of interest.
Protocol: The Cignal XRE and ARE luciferase reporter assays were utilized to determine the activity of AhR and AR signaling pathways in androgen independent (C4-2) prostate cancer cells in the presence and absence of inhibitors. C4-2 cells were transfected with an XRE reporter plasmid & ARE reporter plasmid, as well as with positive and negative control reporter plasmids using attractene. Following transfection, treatments were added to each appropriate plate. A dual luciferase assay was performed and promoter activity values are expressed as arbitrary florescence units (AFU). Each bar represents mean±SEM (n=3) and were analyzed by student t-test. (*) denotes statistically significant differences (*P<0.0001).
For data set [5], the system named is AhR. The data set can be described thus: qRT-PCR of AhR mRNA expression in C4-2 cells. The note with it: 50 μM CH223191 or 30 μM PP2 alone or in combination, 72 h, normalized to L-19.
Protocol: as §1, §2, §3
Data set [6] deals with CYP1B1. The data set can be described thus: qRT-PCR of CYP1B1 mRNA expression in C4-2 cells. To be noted: 50 μM CH223191 or 30 μM PP2 alone or in combination, 72 h, normalized to L-19. Background: Quantitative PCR measures a nucleic acid by following its amplification.
Protocol: as §1, §2, §3
The test system of data set [7] is AR. The data set can be described thus: Nuclear and cytoplasmic fractionation with western blot, AR nuclear localization in C4-2 cells. Format: cell-based, human. The note with it: nuclear fraction normalized with topoisomerase, FIG. 1B. For orientation: In western blotting, separated proteins are transferred to a membrane and probed.
Protocol: In order to address the role of AhR and SRC in this process, a sub-cellular localization was confirmed by immunoblotting following cellular fractionation. […] Cells were washed with cold PBS and cellular fractions were isolated per manufactures instructions using a NE-PER Extraction kit. The nuclear and cytoplasmic fractions were analyzed by western blotting for AhR and AR protein expression. The relative level of cytoplasmic AhR & AR were normalized with β-tubulin expression and the relative level of nuclear AhR & AR were normalized with topoisomerase expression. Blots are representative of three independent experiments.
Data set [8] has as its target T1, AhR. The note with it: cited from earlier work.
The subject of data set [9] is AR. The data set can be described thus: qRT-PCR of AR mRNA expression in C4-2 cells. To be noted: 50 μM CH223191 or 30 μM PP2 alone or in combination, 72 h, normalized to L-19.
Protocol: as §1, §2, §3
Data set [10] has as its system C4-2 prostate cancer cells. The data set can be described thus: Promega CellTiter 96 Cell Proliferation Assay. The format is cell-based, human. The note with it: 50 μM CH223191, 30 μM PP2 alone or in combination.
For data set [11], the system named is AhR. The data set can be described thus: Cignal XRE luciferase reporter assay in C4-2 cells. To be noted: C4-2 cells transfected with XRE reporter, FIG. 2A. The format is cell-based, human. As for the experimental part:
XRE and ARE Binding: 4×10^4 Cells were plated in a 96 well plate. C4-2 cells were transfected with XRE and ARE reporter, as well as with positive and negative control reporter plasmids using attractene. After 16 hours of transfection, media was changed to standard assay media (DMEM+0.5% FBS+0.1 mM NEAA). Cells were grown for an additional 8 hours under normal cell conditions. After 24 hours of transfection, treat the cells and harvested cells 18 hours after treatment. A dual luciferase assay was performed after 42 hours of transfection, and promoter activity values are expressed as arbitrary florescence units (AFU). Experiments were performed in triplicate and the standard error is indicated.
The Cignal XRE and ARE luciferase reporter assays were utilized to determine the activity of AhR and AR signaling pathways in androgen independent (C4-2) prostate cancer cells in the presence and absence of inhibitors. C4-2 cells were transfected with an XRE reporter plasmid & ARE reporter plasmid, as well as with positive and negative control reporter plasmids using attractene. Following transfection, treatments were added to each appropriate plate. A dual luciferase assay was performed and promoter activity values are expressed as arbitrary florescence units (AFU).

In data set [12] the test system is C4-2 prostate cancer cells. The data set can be described thus: Cell cycle analysis. The format is cell-based, human. The note with it: C4-2 cells, 72 hrs; 50 μM CH223191, 30 μM PP2 alone or in combination, FIG. 4B.

With `Cc1ccccc1/N=N/c1ccc(NC(=O)c2ccnn2C)c(C)c1` [CH223191, 2-Methyl-2H-pyrazole-3-carboxylic acid (2-methyl-4-o-tolylazo-phenyl)-amide], in data set [1], the “decrease in KLK3 mRNA expression” value is 65%. The “stimulation of AhR-dependent transcription (agonist activity)” value in data set [2] is “did not stimulate”. For the same compound, the “affinity for the estrogen receptor” value in data set [3] is recorded as “no affinity”. Further, in data set [4], the “reduction of AR promoter activity compared to DMSO in ARE binding assay” value is recorded as 70%. Also, the “reduction of AhR gene expression compared to control” value in [5] was “more than twofold”. In addition, in data set [6], the “reduction of CYP1B1 gene expression compared to control” value is listed as “more than twofold”. For the same compound, the “presence of AR in the nucleus (AR nuclear localization)” value in [7] is recorded as “reduced”. Moreover, the “TCDD-mediated nuclear translocation and DNA binding of AhR” value in [8] was “inhibited”. Besides, the “reduction of AR gene expression” value in data set [9] stood at 60%. For the same compound, in data set [10] (48 and 72 hours), the “growth of C4-2 cells” value is “significantly inhibited”. Moreover, the “decrease in overall growth rate compared to DMSO” value in [10] (after 72 hours of exposure) was determined as 25%. Also, in [11], the “decrease in AhR promoter activity (XRE binding) compared to DMSO” value is 30%. Besides, the “percent of cells in the G0/G1 phase of the cell cycle” value in [12] was “increase”.
